Experimental data taken from paper PMC10376326, “Novel Acylselenourea Derivatives: Dual Molecules with Anticancer and Radical Scavenging Activity” (Antioxidants, 2023).

How the values were obtained:
[1] = system: MDA-MB-231 (breast) cancer cell line; assay: MTT cell viability assay, MDA-MB-231; format: cell-based, human; details: Homo sapiens, MDA-MB-231, 48 h; for activity at 10 µM: read-out: Cell growth %, MDA-MB-231, 10 µM, 48 h, MTT; for activity at 50 µM: read-out: Cell growth %, MDA-MB-231, 50 µM, 48 h, MTT
Summary of the method: (§1)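 MDA-MB-231, HTB-54 and DU-145 grown in RPMI 1640, HT-29 in McCoy's 5A (10% FBS). Output is % cell growth; IC50 determined; ≥3 experiments in quadruplicate.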

[2] = system: HTB-54 (lung) cancer cell line; assay: MTT cell viability assay, HTB-54; format: cell-based, human; details: for activity at 10 µM / activity at 50 µM: Homo sapiens, HTB-54, 48 h; for activity at 10 µM: read-out: Cell growth %, HTB-54, 10 µM, 48 h, MTT; for activity at 50 µM: read-out: Cell growth %, HTB-54, 50 µM, 48 h, MTT
[3] = system: HT-29 (colon) cancer cell line; assay: MTT cell viability assay, HT-29; format: cell-based; details: Homo sapiens, HT-29, 48 h, read-out: Cell growth %; for activity at 10 µM: HT-29, 10 µM; for activity at 50 µM: HT-29, 50 µM
Summary of the method: as §1

[4] = DPPH radical scavenging assay; format: biochemical
Summary of the method: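 Acylselenoureas at 0.003 and 0.03 mg/mL (final dilutions from DMSO stock, via methanol) mixed with DPPH• prepared at 0.04 mg/mL in methanol. Absorbance decrease at 517 nm followed 0–120 min; % scavenging calculated relative to negative control, triplicates.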

[5] = system: DU-145 (prostate) cancer cell line; assay: MTT cell viability assay, DU-145; format: cell-based, human; details: Homo sapiens, DU-145, 48 h; for activity at 10 µM: read-out: Cell growth %, DU-145, 10 µM, 48 h, MTT; for activity at 50 µM: read-out: Cell growth %, DU-145, 50 µM, 48 h, MTT
Summary of the method: as §1

| Compound | activity at 10 µM [1] | activity at 50 µM [1] | melting point | activity at 10 µM [2] | activity at 50 µM [2] | activity at 10 µM [3] | activity at 50 µM [3] | inhibition ([4]; 0.003 mg/mL, 0 min) | inhibition ([4]; 0.003 mg/mL, 5 min) | inhibition ([4]; 0.003 mg/mL, 15 min) | inhibition ([4]; 0.003 mg/mL, 30 min) | inhibition ([4]; 0.003 mg/mL, 60 min) | inhibition ([4]; 0.003 mg/mL, 90 min) | inhibition ([4]; 0.003 mg/mL, 120 min) | inhibition ([4]; 0.03 mg/mL, 0 min) | inhibition ([4]; 0.03 mg/mL, 5 min) | inhibition ([4]; 0.03 mg/mL, 15 min) | inhibition ([4]; 0.03 mg/mL, 30 min) | inhibition ([4]; 0.03 mg/mL, 60 min) | inhibition ([4]; 0.03 mg/mL, 90 min) | other results |
| --- | --- | --- | --- | --- | --- | --- | --- | --- | --- | --- | --- | --- | --- | --- | --- | --- | --- | --- | --- | --- | --- |
| CCCNC(=[Se])NC(=O)/C=C/c1ccccc1 [Compound 6.I, N-(propylcarbamoselenoyl)cinnamamide] | 88.4 ± 16.3% | 23.5 ± 12.9% | 125 to 126 °C | 84.6 ± 5.9% | 36.2 ± 5.7% | 60.4 ± 9.7% | 25.1 ± 5% | 1.5 ± 0.5% | 2 ± 0.8% | 2.5 ± 0.8% | 3.1 ± 0.6% | 4.4 ± 0.6% | 5.6 ± 0.7% | 6.6 ± 0.8% | 2.3 ± 1% | 10.1 ± 1.1% | 15.4 ± 1.3% | 21.8 ± 1.1% | 35.1 ± 1.2% | 50.2 ± 0.8% | inhibition ([4]; 0.03 mg/mL, 120 min): 66.4 ± 0.2%; activity at 10 µM [5]: 19.5 ± 2%; activity at 50 µM [5]: 12.6 ± 1% |
| C=CCNC(=[Se])NC(=O)/C=C/c1cccs1 [Compound 4.II, (E)-N-(allylcarbamoselenoyl)-3-(thiophen-2-yl)acrylamide] | 81.1 ± 6.7% | 17.6 ± 6.6% | 104 to 105 °C | 79.2 ± 9.2% | 44.2 ± 6.2% | 100 ± 7.1% | 32.9 ± 5% | 0% | 0% | 0% | 0.5 ± 2.5% | 1.7 ± 2.4% | 2.5 ± 2.4% | 3.1 ± 2.3% | 0.9 ± 2.8% | 6.1 ± 1.7% | 9.9 ± 1.5% | 15.5 ± 1.4% | 25.6 ± 1.3% | 35 ± 0.6% | inhibition ([4]; 0.03 mg/mL, 120 min): 44.3 ± 0.6%; activity at 10 µM [5]: 67.2 ± 7.1%; activity at 50 µM [5]: 13.8 ± 1.2% |
| C=CCNC(=[Se])NC(=O)/C=C/c1ccc2c(c1)OCO2 [Compound 9.II, (E)-N-(allylcarbamoselenoyl)-3-(benzo[d][1,3]dioxol-5-yl)acrylamide] | 83.8 ± 7.9% | 71.3 ± 5.3% | 187 to 188 °C | 82.8 ± 2.8% | 60 ± 4.5% | 113 ± 7.8% | 103 ± 7.1% | 0.1 ± 2.9% | 0.3 ± 2.7% | 0.8 ± 2.5% | 1.5 ± 2.4% | 2.3 ± 2.3% | 3 ± 2.3% | 3.5 ± 2.3% | 1.9 ± 1.9% | 6.1 ± 1.7% | 10.1 ± 1.2% | 14.7 ± 1.1% | 22.3 ± 1.2% | 29 ± 1.2% | cell growth % ([2]; HTB-54, 10 µM, 48 h, MTT): 82.8%; inhibition ([4]; 0.03 mg/mL, 120 min): 35.2 ± 1.3%; activity at 10 µM [5]: 110 ± 9%; activity at 50 µM [5]: 69.6 ± 6.1% |
